“Also recorded” adds a separate entry of the source.
What was measured:
[1] = tested on: TNBC (MDA-MB-231 and MDA-MB-231) and estrogen positive (MCF-7 and BT-474) cell lines; assay: MTT cell viability, breast cancer cell line panel (summary statements); type: cell-based
Text: (§1) Breast cancer cell lines including MDA-MB-231, MDA-MB-468, MCF-7, BT-474 and SK-BR-3 were obtained from the American Type Tissue Culture (ATCC) and maintained in complete cell culture media Gibco® RPMI 1640 (Thermo Fisher Scientific, USA) supplemented with 10% fetal bovine serum (PAN-Biotech, Aidenbach, Bavaria, Germany) and 1% penicillin/streptomycin (1×) antibiotics (Thermo Fisher Scientific, USA). Human normal mammary epithelial cells immortalized by E6/E7 of HPV type 16 (HNME-E6/E7) were used to predict potential safety of the compounds (125, 126). They were maintained in Gibco® Keratinocyte-SFM (1×) media. All cells were incubated in 5% CO2 at 37° C. incubator. Cells were maintained by routine sub-culturing in T-75 and T25 filtered tissue culture flasks.
MDA-MB-231, MDA-MB-468, MCF-7, BT-474 and HNME-E6/E7 cells were seeded overnight in 96-well plates at a concentration of 8000-10,000/well depending on their pre-calculated cell density and were incubated overnight. At 24 hours, media was replaced with fresh one. The treatment wells included 6-8 different concentrations of the compounds ranging between 0.25 μM-160 μM. […] Absorbance was recorded at a wavelength of 562 nm after 3 minutes of shaking using Infinite 200 PRO Microplate Reader (Tecan, Switzerland). Percentage of viable cells was calculated using the following formula: […]

[2] = tested on: MCF-7; assay: Soft agar colony formation assay; type: cell-based; details: for less colonies as compared to untreated: 5 and 10 μM, 14 days post treatment; for colony formation (in words): MCF-7, soft agar
[3] = tested on: MDA-MB-468; assay: Soft agar colony formation assay; type: cell-based; details: for less colonies as compared to untreated: 5 and 10 μM, 14 days post treatment
[4] = tested on: MDA-MB-231; assay: Soft agar colony formation assay; type: cell-based; details: for less colonies as compared to untreated: 5 and 10 μM, 21 days post treatment; for colony formation (in words): MDA-MB-231, soft agar
[5] = tested on: MDA-MB-468; assay: Matrigel invasion assay; type: cell-based; details: 24 hours; 13 (10 μM), 14 (5 μM)
Procedure: (§2) Matrigel-coated invasion chamber plates (CORNING, USA) were used to study the invasive property of MDA-MB-231, MDA-MB-468 and MCF-7 cancer cells. Cells were seeded at a concentration of 5×10^4 cells/0.5 ml in each upper chamber well and maintained in RPMI serum free medium. Complete RPMI medium with 10% FBS was added to each base well at 600 μl/well to act as an attractant to the cells in the upper chamber. After 24 hours, cells were fixed using a 3.70% formaldehyde as a fixator for 5 minutes. […] Thereafter, cells were stained using 5% crystal violet dissolved in ethanol and were incubated for 5 minutes followed by several rounds of washing with PBS. Cells were then visualized under the microscope and 4 pictures/well were taken from different zones. ImageJ software was used to quantify the number of invaded cells in each well.

[6] = tested on: MCF-7; assay: Matrigel invasion assay; type: cell-based; details: 24 hours; 13 (10 μM), 14 (5 μM)
Procedure: as §2

[7] = tested on: MDA-MB-231; assay: Matrigel invasion assay; type: cell-based; details: 24 hours; 13 (10 μM), 14 (5 μM)
Procedure: as §2

[8] = tested on: MDA-MB-468; assay: Morphological examination; type: cell-based; details: 10 μM; 24 hours
Procedure: (§3) MCF-7, MDA-MB-231, MDA-MB-468 and HNME-E6/E7 cells were seeded in a 6-well plates at a concentration of 200,000-300,000 cells/well and were incubated overnight. After incubation, cells were treated with different compounds.

[9] = tested on: MCF-7; assay: Morphological examination; type: cell-based; details: 10 μM; 48 hours
Procedure: as §3

[10] = tested on: MDA-MB-231; assay: Morphological examination; type: cell-based; details: 10 μM
Procedure: as §3

[11] = tested on: MDA-MB-468; assay: MTT cell viability; type: cell-based; details: for IC50: Homo sapiens, MDA-MB-468, 48 hours of treatment, Mean ± SEM (n = 3 × 3); for SI of HNME/MDA-468 (selective index): ratio of LD50 on HNME-E6/E7 to IC50 on MDA-MB-468
Text: as §1
(§4) MDA-MB-231, MDA-MB-468, MCF-7, BT-474 and HNME-E6/E7 cells were seeded overnight in 96-well plates at a concentration of 8000-10,000/well depending on their pre-calculated cell density and were incubated overnight. At 24 hours, media was replaced with fresh one. The treatment wells included 6-8 different concentrations of the compounds ranging between 0.25 μM-160 μM. At 48 hours post treatment, 10 μL MTT solution was added to each well followed by 4 hours of incubation. Afterwards, media with MTT was removed from all wells and 50 μl DMSO was added to each well to dissolve the crystals. This was followed by 5 minutes incubation. Absorbance was recorded at a wavelength of 562 nm after 3 minutes of shaking using Infinite 200 PRO Microplate Reader (Tecan, Switzerland). Percentage of viable cells was calculated using the following formula: […]

[12] = tested on: MCF-7; assay: MTT cell viability; type: cell-based; details: for IC50: Homo sapiens, MCF7, 48 hours of treatment, Mean ± SEM (n = 3 × 3); for SI of HNME/MCF-7 (selective index): ratio of LD50 on HNME-E6/E7 to IC50 on MCF-7
Text: as §1, §4

[13] = tested on: MDA-MB-231; assay: MTT cell viability; type: cell-based; details: for IC50: Homo sapiens, MDA-MB-231, 48 hours of treatment, Mean ± SEM (n = 3 × 3); for SI of HNME/MDA-231 (selective index): ratio of LD50 on HNME-E6/E7 to IC50 on MDA-MB-231
Text: as §1, §4

[14] = tested on: HNME-E6/E7; assay: Morphological examination of normal cells; type: cell-based, human; details: 5 μM; 48 hours
Procedure: as §3

[15] = tested on: MDA-MB-468; assay: Cell cycle analysis (flow cytometry); type: cell-based; details: 48 hours
Procedure: (§5) The MDA-MB-231, MDA-MB-468 and MCF-7 cell lines were seeded on 6-well plates at a concentration of 200,000 cells per well and were maintained in culture supplemented with 10% fetal bovine serum for 8-10 hours. The same day, media was removed and cells were incubated overnight with serum free media. Second day, cells were treated with the compounds. Adherent and floating cell populations were harvested at 48 hours after treatment with different concentrations of the compounds and counted.
(§6) Afterward, cells were washed with cold PBS once, centrifuged at 4° C. and fixed with 1.5 ml cold 70% ethanol added drop wise while slowly vortexing. Samples were then stored at […] Following fixation, cells were pelleted and washed with ice-cold PBS. Equal aliquots were collected and resuspended in 300 μl of Tali® Cell Cycle Kit and incubated at 37 C. with slow shaking speed for 30 minutes in the dark. Accuri C6 flow cytometer (BD Biosciences, USA) was used to analyze the cells. The FlowJo V10 software was used to process and evaluate the results.

[16] = tested on: MCF-7; assay: Cell cycle analysis (flow cytometry); type: cell-based; details: 48 h; 10 μM of compound 13, 5 μM of compound 14
Procedure: as §5, §6

[17] = tested on: MDA-MB-231; assay: Cell cycle analysis (flow cytometry); type: cell-based; details: 48 hours
Procedure: as §5, §6

SMILES	less colonies as compared to untreated [2]	colony formation (in words) [2]	less colonies as compared to untreated [3]	less colonies as compared to untreated [4]	colony formation (in words) [4]	reduction of cancer cells invasion vs DMSO control [5]	reduction of cancer cells invasion vs DMSO control [6]	reduction of cancer cells invasion vs DMSO control [7]	cell morphology [8]	cell morphology [9]	cell morphology ([10]; 24 hours)	cell morphology ([10]; 48 hours)	IC50 [11]	SI of HNME/MDA-468 (selective index) [11]	IC50 [12]	SI of HNME/MCF-7 (selective index) [12]	IC50 [13]	SI of HNME/MDA-231 (selective index) [13]	cell morphology of normal cells [14]	cell cycle arrest (in words) [16]	further results
CS(=O)(=O)c1ccc(C(=O)/C=C/c2ccc(N(CCCl)CCCl)cc2)cc1 [Compound 13, (E)-3-(4-(Bis(2-chloroethyl)amino)phenyl)-1-(4-(methylsulfonyl)phenyl) prop-2-en-1-one]	~100%	better effects on MCF-7 as compared to colchicine	~100%	~100%	better effects on MDA-MB-231 as compared to colchicine and paclitaxel	48.45%	45.70%	79.57%	obvious change in cell shape	triggered cells to become larger in shape	look more spherical in shape and to lose their mesenchymal fibroblastic property	Mainly single circular cells were obvious	9.29 ± 0.68 µM	3.48	8.95 ± 1.46 µM	3.61	9.67 ± 0.68 µM	3.34	induced morphological changes	mainly noticed in the invasive cell lines but not in the noninvasive, MCF-7, cells	selectivity, approximately similar between different breast cancer cell lines ([1]; versus HNME-E6/E7 normal cells): ~3; cell cycle arrest at the S phase (cells percentage) ([15]; 10 μM of compound 13): 46.8±5.39%; cell cycle arrest at the S phase (cells percentage) ([17]; 10 μM of compound 13): 28.7±1.87%
COc1cccc(C(=O)/C=C/c2ccc(N(CCCl)CCCl)cc2)c1 [Compound 14, (E)-3-(4-(Bis(2-chloroethyl)amino)phenyl)-1-(3-methoxyphenyl) prop-2-en-1-one]	~100%	completely inhibited; also recorded: better effects on MCF-7 as compared to colchicine	~100%	~100%	completely inhibited; also recorded: better effects on MDA-MB-231 as compared to colchicine and paclitaxel	59.28%	57.26%	82.54%	obvious change in cell shape	induced cell shrinkage	did not induce a significant difference	change in cell shape	8.73 ± 0.67 µM	2.36	3.96 ± 1.87 µM	5.22	6.3 ± 0.78 µM	3.2	induced morphological changes	mainly noticed in the invasive cell lines but not in the noninvasive, MCF-7, cells	IC50 ([1]; TNBC and estrogen positive cell lines, read-out: anti-proliferative IC50 values, range over cell lines): 3.94 to 9.22 µM; colony formation (in words) ([3]; MDA-MB-468, soft agar): completely inhibited; cells arrested at the G2/M phase (cells percentage) ([15]; 5 μM of compound 14): 66.45±4.25%; cells arrested at the G2/M phase (cells percentage) ([17]; 5 μM of compound 14): 47.27±7.869%

— US12428405B2, “Chalcone-based chemotherapeutic compound for triple negative breast cancer” (QATAR UNIVERSITY, priority 2019, dated 2025)
